# Calls of active or inactive are those of the source. No cut-off for these calls is given here.
# Key:
# HEK293 [1] = experiment: Cytotoxicity against HEK293 cells at high concentration incubated for 48 hrs in presence of 4-(4-(3-(4-chloro-3-(trifluoromethyl)phenyl)ureido)phenoxy)-N-(prop-2-yn-1-yl)picolinamide by MTT assay; format: toxicity, cell-based; conditions: human, hek293, 48 h
# HEK293 [2] = experiment: Cytotoxicity against HEK293 cells at low concentration incubated for 48 hrs in presence of 4-(4-(3-(4-chloro-3-(trifluoromethyl)phenyl)ureido)phenoxy)-N-(prop-2-yn-1-yl)picolinamide by MTT assay; format: toxicity, cell-based; conditions: human, hek293, 48 h
# [3] = molecular target: T1, Ephrin type-B receptor 4 (Homo sapiens) (UniProt P54760); experiment: Induction of EphB4 degradation in human U87 cells at 2 uM incubated for 48 hrs in presence of 4-(4-(3-(4-chloro-3-(trifluoromethyl)phenyl)ureido)phenoxy)-N-(prop-2-yn-1-yl)picolinamide by Western blot analysis; format: cell-based
# T1 sequence (whole entry): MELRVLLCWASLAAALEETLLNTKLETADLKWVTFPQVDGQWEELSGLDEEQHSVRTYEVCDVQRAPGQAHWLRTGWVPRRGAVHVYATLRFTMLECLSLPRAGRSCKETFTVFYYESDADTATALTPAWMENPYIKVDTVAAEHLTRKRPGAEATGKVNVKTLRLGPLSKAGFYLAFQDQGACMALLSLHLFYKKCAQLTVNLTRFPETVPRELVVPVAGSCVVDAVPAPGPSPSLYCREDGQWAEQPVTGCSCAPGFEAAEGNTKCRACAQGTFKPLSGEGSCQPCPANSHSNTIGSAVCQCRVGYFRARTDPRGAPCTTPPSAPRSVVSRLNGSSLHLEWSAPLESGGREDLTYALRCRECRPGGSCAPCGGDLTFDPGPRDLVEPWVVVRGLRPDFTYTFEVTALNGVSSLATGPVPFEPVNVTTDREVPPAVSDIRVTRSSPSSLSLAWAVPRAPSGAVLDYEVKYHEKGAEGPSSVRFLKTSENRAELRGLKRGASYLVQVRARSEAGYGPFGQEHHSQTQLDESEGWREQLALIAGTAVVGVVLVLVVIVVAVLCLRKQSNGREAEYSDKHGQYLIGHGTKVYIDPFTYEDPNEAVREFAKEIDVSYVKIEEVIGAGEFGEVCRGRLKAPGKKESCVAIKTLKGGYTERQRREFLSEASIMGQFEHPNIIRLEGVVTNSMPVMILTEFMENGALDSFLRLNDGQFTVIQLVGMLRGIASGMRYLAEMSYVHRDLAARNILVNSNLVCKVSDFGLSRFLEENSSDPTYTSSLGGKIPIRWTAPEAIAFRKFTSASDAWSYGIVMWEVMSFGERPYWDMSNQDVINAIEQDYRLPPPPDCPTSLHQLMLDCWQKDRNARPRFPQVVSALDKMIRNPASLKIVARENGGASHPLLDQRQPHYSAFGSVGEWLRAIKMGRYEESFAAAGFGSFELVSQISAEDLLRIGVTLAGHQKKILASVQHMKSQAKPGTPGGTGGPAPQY
# [4] = molecular target: Vascular endothelial growth factor receptor 2 (Homo sapiens) (UniProt P35968); experiment: Induction of VEGFR2 degradation in human U87 cells at 2 uM incubated for 48 hrs in presence of 4-(4-(3-(4-chloro-3-(trifluoromethyl)phenyl)ureido)phenoxy)-N-(prop-2-yn-1-yl)picolinamide by Western blot analysis; format: cell-based
# Sequence of Vascular endothelial growth factor receptor 2 (Homo sapiens) (P35968 whole entry): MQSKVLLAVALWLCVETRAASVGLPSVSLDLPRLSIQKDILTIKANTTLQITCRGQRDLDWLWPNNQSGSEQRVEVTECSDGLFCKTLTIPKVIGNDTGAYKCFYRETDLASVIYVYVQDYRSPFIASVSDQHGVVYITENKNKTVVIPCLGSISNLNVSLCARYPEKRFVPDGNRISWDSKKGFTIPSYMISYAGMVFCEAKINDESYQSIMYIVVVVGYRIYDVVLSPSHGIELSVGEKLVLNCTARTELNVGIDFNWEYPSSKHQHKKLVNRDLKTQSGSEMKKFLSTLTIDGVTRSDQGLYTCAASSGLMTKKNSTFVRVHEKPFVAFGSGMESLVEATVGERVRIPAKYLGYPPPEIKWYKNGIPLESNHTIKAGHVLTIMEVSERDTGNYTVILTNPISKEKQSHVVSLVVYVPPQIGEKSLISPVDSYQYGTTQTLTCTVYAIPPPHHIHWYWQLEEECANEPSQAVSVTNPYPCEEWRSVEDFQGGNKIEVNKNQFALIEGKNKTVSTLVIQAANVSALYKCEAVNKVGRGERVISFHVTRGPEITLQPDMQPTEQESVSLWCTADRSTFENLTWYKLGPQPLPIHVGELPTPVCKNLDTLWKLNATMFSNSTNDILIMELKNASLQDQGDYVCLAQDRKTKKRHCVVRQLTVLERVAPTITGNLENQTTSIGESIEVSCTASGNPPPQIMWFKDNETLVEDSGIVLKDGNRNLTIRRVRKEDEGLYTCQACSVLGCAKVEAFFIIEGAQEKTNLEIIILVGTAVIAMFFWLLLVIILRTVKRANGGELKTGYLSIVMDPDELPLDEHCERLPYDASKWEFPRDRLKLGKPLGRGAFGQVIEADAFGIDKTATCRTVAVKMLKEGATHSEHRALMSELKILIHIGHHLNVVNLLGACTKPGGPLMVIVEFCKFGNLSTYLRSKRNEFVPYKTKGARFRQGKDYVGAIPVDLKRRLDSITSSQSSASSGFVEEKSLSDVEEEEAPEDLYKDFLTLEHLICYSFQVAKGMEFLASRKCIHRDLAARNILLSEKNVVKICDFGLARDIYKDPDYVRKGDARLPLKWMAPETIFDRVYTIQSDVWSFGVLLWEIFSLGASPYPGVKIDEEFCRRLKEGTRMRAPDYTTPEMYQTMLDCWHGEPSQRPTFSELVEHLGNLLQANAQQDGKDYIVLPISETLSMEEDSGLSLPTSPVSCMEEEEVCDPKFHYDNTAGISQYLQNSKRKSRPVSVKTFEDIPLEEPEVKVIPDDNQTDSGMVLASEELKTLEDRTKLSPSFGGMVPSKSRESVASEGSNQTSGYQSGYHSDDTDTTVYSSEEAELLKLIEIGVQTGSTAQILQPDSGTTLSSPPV
# HEK293 [5] = experiment: Cytotoxicity against HEK293 cells incubated for 48 hrs by MTT assay; format: toxicity, cell-based; conditions: human, hek293, 48 h
# [6] = Stability of compound in DMEM medium by HPLC analysis; format: physicochemical
# U-87 MG [7] = experiment: Antiproliferative activity against human U87 cells incubated for 48 hrs in presence of 4-(4-(3-(4-chloro-3-(trifluoromethyl)phenyl)ureido)phenoxy)-N-(prop-2-yn-1-yl)picolinamide by MTT assay; format: functional, cell-based, U-87MG ATCC
# A549 [8] = experiment: Antiproliferative activity against human A549 cells incubated for 48 hrs in presence of 4-(4-(3-(4-chloro-3-(trifluoromethyl)phenyl)ureido)phenoxy)-N-(prop-2-yn-1-yl)picolinamide by MTT assay; format: functional, cell-based; conditions: A549, 48 h
# [9] = molecular target: Serine/threonine-protein kinase B-raf (Homo sapiens) (UniProt P15056); experiment: Induction of BRAF degradation in human U87 cells upto 10 uM incubated for 48 hrs by Western blot analysis; format: cell-based
# Sequence of Serine/threonine-protein kinase B-raf (Homo sapiens) (P15056 whole entry): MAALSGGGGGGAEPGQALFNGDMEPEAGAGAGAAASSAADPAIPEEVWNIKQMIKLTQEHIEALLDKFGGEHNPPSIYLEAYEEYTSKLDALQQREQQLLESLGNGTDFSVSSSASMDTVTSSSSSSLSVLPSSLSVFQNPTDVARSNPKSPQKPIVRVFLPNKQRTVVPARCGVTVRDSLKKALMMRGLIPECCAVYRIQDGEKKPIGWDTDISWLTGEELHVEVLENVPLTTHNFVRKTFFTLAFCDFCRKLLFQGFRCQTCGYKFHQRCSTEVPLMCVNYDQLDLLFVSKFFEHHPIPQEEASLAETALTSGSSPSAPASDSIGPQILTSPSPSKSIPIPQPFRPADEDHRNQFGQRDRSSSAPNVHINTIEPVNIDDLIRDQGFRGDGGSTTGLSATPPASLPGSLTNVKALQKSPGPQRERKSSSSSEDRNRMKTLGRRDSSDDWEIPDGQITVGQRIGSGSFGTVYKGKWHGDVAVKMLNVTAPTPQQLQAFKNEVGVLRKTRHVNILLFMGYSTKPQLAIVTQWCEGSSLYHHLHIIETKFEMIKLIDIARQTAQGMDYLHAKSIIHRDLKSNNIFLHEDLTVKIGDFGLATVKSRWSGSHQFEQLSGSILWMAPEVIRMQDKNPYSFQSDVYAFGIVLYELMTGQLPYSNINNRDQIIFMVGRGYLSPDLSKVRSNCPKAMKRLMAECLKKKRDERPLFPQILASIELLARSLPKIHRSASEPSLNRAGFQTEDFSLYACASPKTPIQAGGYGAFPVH
# [10] = molecular target: Platelet-derived growth factor receptor beta (Homo sapiens) (UniProt P09619); experiment: Induction of PDGFR-beta degradation in human U87 cells upto 10 uM incubated for 48 hrs by Western blot analysis; format: cell-based
# Sequence of Platelet-derived growth factor receptor beta (Homo sapiens) (P09619 whole entry): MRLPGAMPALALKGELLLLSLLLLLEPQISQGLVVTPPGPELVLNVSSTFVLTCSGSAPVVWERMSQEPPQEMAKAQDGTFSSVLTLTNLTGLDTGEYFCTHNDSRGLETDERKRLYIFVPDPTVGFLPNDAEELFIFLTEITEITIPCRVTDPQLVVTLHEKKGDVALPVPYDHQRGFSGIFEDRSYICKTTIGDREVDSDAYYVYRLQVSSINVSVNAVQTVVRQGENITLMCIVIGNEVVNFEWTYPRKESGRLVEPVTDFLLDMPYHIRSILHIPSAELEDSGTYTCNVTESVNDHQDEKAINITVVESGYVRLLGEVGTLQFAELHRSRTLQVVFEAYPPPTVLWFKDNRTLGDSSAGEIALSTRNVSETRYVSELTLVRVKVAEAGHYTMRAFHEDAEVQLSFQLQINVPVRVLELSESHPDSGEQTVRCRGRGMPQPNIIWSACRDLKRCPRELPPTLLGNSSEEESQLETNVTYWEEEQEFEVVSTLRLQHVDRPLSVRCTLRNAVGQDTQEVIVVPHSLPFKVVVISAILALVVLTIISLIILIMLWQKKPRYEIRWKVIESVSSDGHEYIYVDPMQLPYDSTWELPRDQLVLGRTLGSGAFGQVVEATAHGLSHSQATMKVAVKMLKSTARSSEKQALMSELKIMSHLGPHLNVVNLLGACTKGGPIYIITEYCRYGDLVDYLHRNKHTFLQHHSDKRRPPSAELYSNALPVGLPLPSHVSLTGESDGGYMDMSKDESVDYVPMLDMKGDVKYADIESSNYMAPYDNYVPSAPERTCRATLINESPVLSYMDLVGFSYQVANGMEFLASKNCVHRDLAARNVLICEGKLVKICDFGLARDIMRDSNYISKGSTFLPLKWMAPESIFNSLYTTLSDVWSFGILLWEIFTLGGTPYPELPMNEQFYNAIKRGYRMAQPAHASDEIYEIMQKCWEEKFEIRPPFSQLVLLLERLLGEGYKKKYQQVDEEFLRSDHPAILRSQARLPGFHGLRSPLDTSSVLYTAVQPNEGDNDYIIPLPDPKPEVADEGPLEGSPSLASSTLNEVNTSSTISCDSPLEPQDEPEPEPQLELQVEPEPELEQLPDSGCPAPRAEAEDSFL
# U-87 MG [11] = experiment: Induction of cell cycle arrest at S phase in human U87 cells incubated for 48 hrs in presence of 4-(4-(3-(4-chloro-3-(trifluoromethyl)phenyl)ureido)phenoxy)-N-(prop-2-yn-1-yl)picolinamide by PI staining based flow cytometry; format: functional; conditions: U-87MG ATCC, dose 0.1-1 µM
# A549 [12] = experiment: Antiproliferative activity against human A549 cells incubated for 48 hrs by MTT assay; format: functional, cell-based; conditions: A549, 48 h
# [13] = molecular target: T1, Ephrin type-B receptor 4 (Homo sapiens); experiment: Induction of EphB4 degradation in human U87 cells upto 10 uM incubated for 48 hrs by Western blot analysis; format: cell-based
# [14] = molecular target: Vascular endothelial growth factor receptor 2 (Homo sapiens) (UniProt P35968); experiment: Induction of VEGFR2 degradation in human U87 cells upto 10 uM incubated for 48 hrs by Western blot analysis; format: cell-based
# U-87 MG [15] = experiment: Antiproliferative activity against human U87 cells incubated for 48 hrs by MTT assay; format: functional, cell-based, U-87MG ATCC
# HEK293 [16] = experiment: Cytotoxicity against HEK293 cells at high concentration incubated for 48 hrs by MTT assay; format: toxicity, cell-based; conditions: human, hek293, 48 h
# HEK293 [17] = experiment: Cytotoxicity against HEK293 cells at low concentration incubated for 48 hrs by MTT assay; format: toxicity, cell-based; conditions: human, hek293, 48 h
Activity [3],Activity [4],Stability [6],IC50 (U-87 MG [7]),IC50 (A549 [8]),Activity [9],Activity [10],IC50 (A549 [12]),Activity [13],Activity [14],IC50 (U-87 MG [15]),SMILES,Activity (HEK293 [1]),Activity (HEK293 [2]),Activity (HEK293 [5]),Activity (U-87 MG [11]),Activity (HEK293 [16]),Activity (HEK293 [17])
Active,Active,Stable,16 µM,1.06 µM,inactive,inactive,> 50 µM,inactive,inactive,> 50 µM,Cc1ncsc1-c1ccc(CNC(=O)[C@@H]2C[C@@H](O)CN2C(=O)[C@@H](NC(=O)CCCCN=[N+]=[N-])C(C)(C)C)cc1,Toxic,Non-Toxic,Non-Toxic,Dose-Dependent Effect,,
,,,,,,,8.26 µM,,,1.28 µM,CNC(=O)c1cc(Oc2ccc(NC(=O)Nc3ccc(Cl)c(C(F)(F)F)c3)cc2)ccn1 [SORAFENIB],,,,,Toxic,Non-Toxic
,,Unstable,,,,,,,,,Nc1cccc2c1C(=O)N(C1CCC(=O)NC1=O)C2=O (stereo not given) [POMALIDOMIDE],,,,,,

# Reference: ChEMBL document CHEMBL5620355, “Discovery of intracellular self-assembly protein degraders driven by tumor-specific activatable bioorthogonal reaction” (Eur J Med Chem, 2023)
